Assay results from ChEMBL document CHEMBL1153103, “Bioisosterism of urea-based GCPII inhibitors: Synthesis and structure-activity relationship studies” (Bioorg Med Chem Lett, 2010).

Assays:
[1] = target: T1, Glutamate carboxypeptidase 2 (Homo sapiens, UniProt Q04609); assay: Inhibition of human cloned glutamate carboxypeptidase 2
[2] = target: T1, Glutamate carboxypeptidase 2; assay: Inhibition of glutamate carboxypeptidase 2 in human LNCaP cells by fluorescence based NAALADase assay; assay type: cell-based

T1 sequence (Q04609 whole entry): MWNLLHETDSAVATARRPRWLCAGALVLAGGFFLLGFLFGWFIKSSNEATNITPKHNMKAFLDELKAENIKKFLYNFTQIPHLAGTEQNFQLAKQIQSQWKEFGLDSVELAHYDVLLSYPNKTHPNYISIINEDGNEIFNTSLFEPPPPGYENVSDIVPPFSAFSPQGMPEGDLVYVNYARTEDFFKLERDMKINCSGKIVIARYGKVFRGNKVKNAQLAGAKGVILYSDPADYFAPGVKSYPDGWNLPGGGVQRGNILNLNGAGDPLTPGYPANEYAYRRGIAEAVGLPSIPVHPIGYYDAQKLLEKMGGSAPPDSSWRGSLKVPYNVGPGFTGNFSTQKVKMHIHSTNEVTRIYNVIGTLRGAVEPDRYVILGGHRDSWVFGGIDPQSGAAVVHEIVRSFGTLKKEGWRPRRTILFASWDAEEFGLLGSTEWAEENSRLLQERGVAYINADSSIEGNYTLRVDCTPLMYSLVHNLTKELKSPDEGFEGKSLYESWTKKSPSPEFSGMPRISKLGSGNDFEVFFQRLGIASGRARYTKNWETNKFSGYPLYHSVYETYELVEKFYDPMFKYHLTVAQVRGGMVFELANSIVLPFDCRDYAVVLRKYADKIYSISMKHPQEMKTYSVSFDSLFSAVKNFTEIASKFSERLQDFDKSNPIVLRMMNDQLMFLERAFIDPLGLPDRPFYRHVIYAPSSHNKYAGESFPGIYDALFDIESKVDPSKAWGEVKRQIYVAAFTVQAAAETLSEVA

Ki [1]	Ki [2]	Structure (SMILES)
0.254 µM		O=C(N[C@@H](CCCCNC(=O)c1ccc(I)cc1)C(=O)O)N[C@@H](CC1CO1)C(=O)O (some centres undefined)
0.0851 µM		O=C(N[C@@H](CCCCNC(=O)c1ccc(I)cc1)C(=O)O)N[C@H](C(=O)O)c1ccc(O)cc1
3.43 µM		O=C(O)CCCNC(=O)N[C@@H](CCCCNC(=O)c1ccc(I)cc1)C(=O)O
0.0161 µM		O=C(N[C@@H](CCCCNC(=O)c1ccc(I)cc1)C(=O)O)N[C@@H](Cc1cscn1)C(=O)O
	0.7 µM	CC(C)C[C@H](NC(=O)N[C@@H](Cc1ccc(O)cc1)C(=O)O)C(=O)O
0.105 µM		O=C(N[C@@H](CCCCNC(=O)c1ccc(I)cc1)C(=O)O)N[C@@H](Cc1ccncc1)C(=O)O
	3 µM	CC(C)C[C@H](NC(=O)N[C@@H](Cc1cccc(C(=O)O)c1)C(=O)O)C(=O)O
1.32 µM		O=C(O)CNC(=O)N[C@@H](CCCCNC(=O)c1ccc(I)cc1)C(=O)O
0.0972 µM		O=C(N[C@@H](CCCCNC(=O)c1ccc(I)cc1)C(=O)O)N[C@@H](Cc1cccnc1)C(=O)O
0.318 µM		O=C(N[C@@H](CCCCNC(=O)c1ccc(I)cc1)C(=O)O)NC1(C(=O)O)CC1
0.0053 µM		C#CC[C@H](NC(=O)N[C@@H](CCCCNC(=O)c1ccc(I)cc1)C(=O)O)C(=O)O
0.0241 µM		CC(=O)SCCC[C@H](NC(=O)N[C@@H](CCCCNC(=O)c1ccc(I)cc1)C(=O)O)C(=O)O
0.0162 µM		O=C(N[C@@H](CCCCNC(=O)c1ccc(I)cc1)C(=O)O)N[C@@H](Cc1cccs1)C(=O)O
	> 1000 µM	COC(=O)[C@H](CC(C)C)NC(=O)N[C@@H](Cc1cccc(C(=O)O)c1)C(=O)O
0.32 µM		NC(=O)C[C@H](NC(=O)N[C@@H](CCCCNC(=O)c1ccc(I)cc1)C(=O)O)C(=O)O
0.795 µM		O=C(N[C@@H](CCCCNC(=O)c1ccc(I)cc1)C(=O)O)N[C@H](Cc1cccs1)C(=O)O
0.132 µM		N#CC[C@H](NC(=O)N[C@@H](CCCCNC(=O)c1ccc(I)cc1)C(=O)O)C(=O)O
0.0053 µM		O=C(N[C@@H](CCCCNC(=O)c1ccc(I)cc1)C(=O)O)N[C@@H](Cc1ccco1)C(=O)O
	13 µM	CC(C)C[C@H](NC(=O)N[C@@H](Cc1ccc(O)c(I)c1)C(=O)O)C(=O)O
0.285 µM		COc1cc(C(NC(=O)N[C@@H](CCCCNC(=O)c2ccc(I)cc2)C(=O)O)C(=O)O)ccc1O (some centres undefined)
0.794 µM		O=C(N[C@@H](CCCCNC(=O)c1ccc(I)cc1)C(=O)O)N[C@H](Cc1ccco1)C(=O)O
0.0523 µM		CCC[C@H](NC(=O)N[C@@H](CCCCNC(=O)c1ccc(I)cc1)C(=O)O)C(=O)O

The remaining lines, values behind:

Structure (SMILES)	Ki [1]	Ki [2]
COC(=O)[C@H](CC(C)C)NC(=O)NC(C(=O)O)c1ccc(F)c(OC)c1 (some centres undefined)		> 1000 µM
COC(=O)[C@H](CC(C)C)NC(=O)N[C@@H](Cc1cccc(O)c1)C(=O)O		> 1000 µM
COc1cc(C(NC(=O)N[C@@H](CC(C)C)C(=O)OC(C)C)C(=O)O)ccc1O (some centres undefined)		0.081 µM
COC(=O)[C@H](CC(C)C)NC(=O)N[C@H](C(=O)O)c1ccc(O)c(I)c1		0.475 µM
CC(C)C[C@H](NC(=O)N[C@H](C(=O)O)c1ccc(O)cc1)C(=O)O		0.775 µM
CC(C)C[C@H](NC(=O)NC(C(=O)O)c1ccc(O)c(I)c1)C(=O)OC(C)C (some centres undefined)		0.275 µM
COC(=O)[C@H](CC(C)C)NC(=O)NC(C(=O)O)c1ccc(O)c(F)c1 (some centres undefined)		3 µM
CC(C)C[C@H](NC(=O)NC(C(=O)O)c1cccc(O)c1)C(=O)O (some centres undefined)		> 1000 µM
COc1cc(C(NC(=O)N[C@@H](CC(C)C)C(=O)O)C(=O)O)ccc1O (some centres undefined)		0.25 µM
CC(C)C[C@H](NC(=O)NC(C(=O)O)c1cc(O)cc(O)c1)C(=O)O (some centres undefined)		13 µM
COC(=O)[C@H](CC(C)C)NC(=O)NC(C(=O)O)c1cccc(O)c1 (some centres undefined)		> 1000 µM
COC(=O)[C@H](CC(C)C)NC(=O)N[C@H](C(=O)O)c1ccc(O)c(Br)c1		0.4 µM
COC(=O)[C@H](CC(C)C)NC(=O)NC(C(=O)O)c1ccc(O)c(OC)c1 (some centres undefined)		0.153 µM
COC(=O)[C@H](CC(C)C)NC(=O)N[C@@H](CCCSC)C(=O)O		> 1000 µM
COC(=O)[C@H](CC(C)C)NC(=O)N[C@@H](CCC(N)=O)C(=O)O		7.5 µM
COC(=O)[C@H](CC(C)C)NC(=O)N[C@H](C(=O)O)c1cc(Br)c(O)c(Br)c1		0.575 µM
CSCCC[C@H](NC(=O)N[C@@H](CC(C)C)C(=O)O)C(=O)O		3.5 µM
